Values joined by “and” are separate entries in the source; they are usually repeats but may differ in a detail not shown here. Equal values may be shown once.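 Step 1: Grow cells in 96-well plates. Step 2: Expose to compound for 48 hours at 5 concentrations. Step 3: Interpolate endpoints linearly; if unreached, use highest concentration. Here, GI50 denotes the concentration required for 50% inhibition of growth. TGI marks complete inhibition of growth.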
What was measured:
Experiment in all cases: NCI-60 cell line screen, 48 h
[1] = tested on: IGROV1 ovarian
[2] = tested on: MDA-MB-435
[3] = tested on: NCI-H522 lung
[4] = tested on: NCI/ADR-RES ovarian
[5] = tested on: RPMI-8226 leukemia
[6] = tested on: SK-MEL-2 melanoma
[7] = tested on: SN12C renal
[8] = tested on: SNB-75 CNS
[9] = tested on: UACC-257 melanoma
[10] = tested on: RXF 393 renal

Row | SMILES | GI50 [1] | TGI [1] | GI50 [2] | TGI [2] | GI50 [3] | TGI [3] | GI50 [4] | TGI [4] | GI50 [5] | TGI [5] | GI50 [6] | TGI [6] | GI50 [7] | TGI [7] | GI50 [8] | TGI [8] | TGI [9] | TGI [10] | GI50 [10]
1 | CN(C)CCNC(=O)c1ccc(Nc2nc3ccccc3c3occc23)cc1 | 2.18 µM | 10.3 µM | 1.95 µM | 3.94 µM | 13.3 µM | 29.8 µM | 8.92 µM | 22.6 µM | 2.9 µM | 9.05 µM | 9.71 µM | 26.6 µM | 2.5 µM | 7.87 µM | 10.5 µM | 25.5 µM | – | – | –
2 | CN/N=C(/Cc1occc(=O)c1O)C(=O)Nc1ccc(C)c(C)c1 | – | > 100 µM | – | – | – | > 100 µM | – | – | – | > 100 µM | – | > 100 µM | – | > 100 µM | – | – | > 100 µM | – | –
3 | CC(=O)Nc1ccc(/C=C(\NC(=O)c2ccccc2)c2nc3ccc4c(c3[nH]2)C(=O)c2ccccc2C4=O)cc1 | – | > 100 µM | – | – | – | > 100 µM | – | – | – | > 100 µM | – | > 100 µM | – | > 100 µM | – | 61.5 µM | > 100 µM | 49.1 µM | –
4 | COc1cccc(N2C(=O)c3c(c4[nH]c5ccccc5c4c4ccc(C(C)(C)C)cc34)C2=O)c1 | – | > 100 µM | – | – | – | > 100 µM | – | – | – | – | – | > 100 µM | – | > 100 µM | – | > 100 µM | > 100 µM | > 100 µM | –
5 | COc1nc2c(OC)cccc2c(OC)c1C=O | – | > 100 µM | – | – | – | > 100 µM | – | – | – | > 100 µM | – | > 100 µM | – | > 100 µM | – | > 100 µM | > 100 µM | > 100 µM | –
6 | C/C(=N\NC(=S)N1CCCCCC1)c1nccnc1C | – | – | – | – | – | – | – | – | – | > 100 µM | – | 50.2 µM | – | > 100 µM | – | 21.9 µM | 1.77 µM | 7.06 µM | –
7 | CCC/C(=N\NC(=S)N1CCN(c2ccccn2)CC1)c1ccccn1 | – | 2.3 µM and 3.11 µM | – | 1.96 µM | – | 0.307 µM | – | – | – | 0.024 µM and 0.0128 µM | 0.19 µM | 0.312 µM and 1.65 µM | 0.339 µM | 1.94 µM and 1.46 µM | – | 1.84 µM and 0.325 µM | 0.224 µM and 1.87 µM | 2.08 µM and 1.38 µM | 0.0102 µM
8 | Cn1ncc(=S)[nH]c1=S | – | > 100 µM | – | – | – | > 100 µM | – | – | – | > 100 µM | – | > 100 µM | – | > 100 µM | – | > 100 µM | – | > 100 µM | –
9 | O=C(Nc1ccc(Cl)c(C(F)(F)F)c1)C(=O)C(C(=O)/C=C/c1ccccc1)C1OC(=O)c2ccccc21 (stereo unspecified) | – | > 100 µM | – | – | – | > 100 µM | – | – | – | > 100 µM | – | – | – | > 100 µM | – | > 100 µM | > 100 µM | > 100 µM | –
10 | CC(=O)N1CCC2(C=Nc3ccccc32)CC1 | – | > 100 µM | – | – | – | – | – | – | – | > 100 µM | – | > 100 µM | – | – | – | > 100 µM | > 100 µM | – | –
11 | O=C(O)c1ccc(S(=O)(=O)c2ccccc2)c([N+](=O)[O-])c1 | – | > 100 µM | – | – | – | > 100 µM | – | – | – | > 100 µM | – | > 100 µM | – | > 100 µM | – | > 100 µM | > 100 µM | > 100 µM | –
12 | COC(=O)C1(C)C=C(Nc2ccccc2)C(=O)N1c1ccccc1 (stereo unspecified) | – | > 100 µM | – | – | – | > 100 µM | – | – | – | > 100 µM | – | > 100 µM | – | > 100 µM | – | – | > 100 µM | > 100 µM | –
13 | Cc1cc2c(cc1C)NC(=O)C(NC(=O)/C=C/c1ccccc1)C=N2 (stereo unspecified) | – | > 100 µM | – | – | – | 66 µM | – | – | – | 75.9 µM | – | 84.4 µM | – | > 100 µM | – | > 100 µM | 82.9 µM | 59.7 µM | –
14 | CC(=O)N(C)OC(=O)CC(=O)c1ccccc1 | – | > 100 µM | – | – | – | > 100 µM | – | – | – | > 100 µM | – | – | – | > 100 µM | – | > 100 µM | > 100 µM | > 100 µM | –
15 | CN(N=O)C(=O)Nc1c[nH]c(=O)[nH]c1=O | – | > 100 µM | – | > 100 µM | – | > 100 µM | – | > 100 µM | – | – | – | > 100 µM | – | > 100 µM | – | > 100 µM | > 100 µM | – | –
16 | COc1ccc(OCC(=O)O)c2c1CCC(C(C)C)C2=O (stereo unspecified) | – | > 100 µM | – | – | – | > 100 µM | – | – | – | > 100 µM | – | > 100 µM | – | – | – | – | > 100 µM | – | –
17 | CCOC(=N)CC(=O)Nc1ccc(Cl)cc1 | – | > 100 µM | – | – | – | > 100 µM | – | – | – | – | – | > 100 µM | – | > 100 µM | – | > 100 µM | > 100 µM | > 100 µM | –
18 | CCCCCCCCCCCCCS(=O)(=O)O | – | > 100 µM | – | – | – | > 100 µM | – | – | – | – | – | > 100 µM | – | > 100 µM | – | > 100 µM | > 100 µM | > 100 µM | –
19 | CC(Cn1c2c3ccccc3ccc2c2oc(=O)c3ccccc3c21)N(C)C (stereo unspecified) | – | > 100 µM | – | – | – | > 100 µM | – | – | – | > 100 µM | – | > 100 µM | – | – | – | > 100 µM | > 100 µM | – | –
20 | CCCN1C(=O)C/C(=C\C(C)=O)Nc2ccccc21 | – | > 100 µM | – | – | – | > 100 µM | – | – | – | – | – | > 100 µM | – | > 100 µM | – | > 100 µM | – | > 100 µM | –

Source: PubChem BioAssay (NCI)
